According to patent publication US11618744B2, “Benzoimidazoles as prolyl hydroxylase inhibitors” (Janssen Pharmaceutica NV, priority 2008, dated 2023):

These molecules were tested on Hep-3B cells (assay: Cellular assay: erythropoietin (EPO) secretion in Hep-3B cells). Settings: 24 h incubation, compound at 100 μM, percentage of EPO secretion of control compound 7-[(4-Chloro-phenyl)-(5-methyl-isoxazol-3-ylamino)-methyl]-quinolin-8-ol.
Format: cell-based, human

SMILES	Cellular % EPO Stimulation [%]
O=C(O)c1cnn(-c2nc3cc(-c4cccc(OCc5ccccc5Cl)c4)ccc3[nH]2)c1 [Example 13, 1-{5-[3-(2-Chloro-benzyloxy)-phenyl]-1H-benzoimidazol-2-yl}-1H-pyrazole-4-carboxylic acid]	18
O=C(O)c1cnn(-c2nc3ccccc3[nH]2)c1 [Example 1, 1-(1H-Benzoimidazol-2-yl)-1H-pyrazole-4-carboxylic acid]	7.1
Cc1cc2nc(-n3cc(C(=O)O)cn3)[nH]c2cc1C [Example 5, 1-(5,6-Dimethyl-1H-benzoimidazol-2-yl)-1H-pyrazole-4-carboxylic acid]	2.1
O=C(O)c1cnn(-c2nc3cc(-c4cccc(C(F)(F)F)c4)ccc3[nH]2)c1 [Example 17, 1-[5-(3-Trifluoromethyl-phenyl)-1H-benzoimidazol-2-yl]-1H-pyrazole-4-carboxylic acid]	5.8
Cc1nn(-c2nc3cc(Cl)c(Cl)cc3[nH]2)c(C)c1C(=O)O [Example 22, 1-(5,6-Dichloro-1H-benzoimidazol-2-yl)-3,5-dimethyl-1H-pyrazole-4-carboxylic acid]	0.47
